Measurements taken from EP2241555A1, “New RAC1 inhibitors as potential pharmacological agents for heart failure treatment” (UNIVERSITA' DEGLI STUDI DI MILANO, priority 2009, dated 2010).
Like-named read-outs stand apart in the source and are kept apart here.

Assays:
Caco2 = Caco2 monolayer permeation; format: in vitro ADME, human; conditions: Caco2 monolayers, 90 min, start concentration 50 µM
Experimental: (§1) The permeation characteristics of the Rac1 inhibitors were determined first in the artificial system PAMPA (Parallel Artificial Membrane Permeability Assay) which uses a membrane covered with a lipid to simulate the lipid bilayer of various cell types, including intestinal epithelium and second in vitro across Caco2, a human colon carcinoma cell line seeded as monolayers onto polycarbonate membranes. The PAMPA is able to predict the ability of a compound to permeate by a passive transcellular transport through an artificial lipid layer assembled on a membrane and also allows a classification into low (flux <20%), medium (20%≤ flux ≤70%), and high (flux >70%) absorbing substances. The Caco2 assay provides a well-established in vitro model to predict the human intestinal absorption.

[1] = Caco2 monolayer permeation; format: in vitro ADME, human; conditions: human, start concentration 50 µM; for Papp at 90 min, 50 µM: Caco-2, Caco2 monolayers
Experimental: as §1

[2] = system: primary rat cardiomyocytes; test: Resazurine cytotoxicity assay (metabolic activity), primary rat cardiomyocytes; format: cell-based; conditions: for MVC / EC50: 24 h; for MVC: maximal viability concentration; for Cytotoxicity-Classification: 24 h exposure; for EC50: Cardiomyocyte, metabolic activity
Experimental: (§2) For a pre-screening of the compounds they were first tested in human hepatocellular carcinoma cells (HepG2 cells)for 24 h and to gain further information about the cytotoxic potential more specific target tissues like the mouse cardiomyocytes HL-1 and primary rat cardiomyocytes were used additionally. […] The toxicity classification has been determined by using drugs currently utilized in clinic with known toxicity profile

[3] = tissue homogenate, 60 min, 10 µM
Experimental: (§3) The basic incubation mixture with total volume of 500 µl consisted of the following components. 100 µl liver homogenate, compound in DMSO (dimethyl sulfoxide) and 1 mM NADPH (reduced nicotinamide adenine dinucleotide phosphate), 1 mM UDPGA (uridine 5'-diphosphoglucuronic acid), 1 mM PAPS (3'-phosphoadenosine-5'-phosphosulfate) and 1 mM GSH (glutathione). The substrate concentration used was 10 µM. Two parallel incubations, one with cofactors and one without, were made. Final DMSO concentration in the incubation was 1 µM. […] Reaction was started by addition of a cofactor mixture and stopped by adding 250 µl of ice-cold acetonitrile.

[4] = PAMPA (Parallel Artificial Membrane Permeability Assay); format: in vitro ADME; conditions: start concentration 250 µM, diffusion period 16 h
Experimental: as §1
The flux rate of the compounds of the invention and the reference NSC23766 was measured from a donor compartment to an acceptor compartment across the lipid layer at a start concentration of 250 µM over a diffusion period of 16 h.

Rac1 [5] = molecular target: T1, Rac1 (Homo sapiens, UniProt P63000); test: G-LISA assay of intracellular Rac1-GTP in PDGF-BB stimulated human smooth muscle cells; format: cell-based; conditions: for remaining activity at 50 µM: Concentration 50 µm, 4 hours incubation, then PDGF-BB 10 ng/ml, Rac1-GTP detected relative to control (100), lower = more inhibition, read-out: Rac1 inhibitory activity (% vs control); for inhibitory action on Rac1 activity: G-LISA, 50 µM, statement in words
T1 construct: endogenous in cells; host or cells: human cultured smooth muscle cells, stimulated with PDGF-BB
Source text: The intracellular amount of Rac1-GTP has been determined using the GLISA™ assay (Cytoskeleton, Inc). The GLISA™ assay uses a 96-well plate coated with RBD domain of Rac1-family effector protein PAK1. […] A significant inhibition on Rac1 activity should decrease the intracellular levels of Rac1-GTP and therefore reduce the percentage of Rac1-GTP detected compared to control untreated cells.

HepG2 cells = test: Resazurine cytotoxicity assay (metabolic activity), HepG2; format: cell-based, human; conditions: for MVC / EC50: HepG2, 24 h; for MVC: maximal viability concentration; for Cytotoxicity-Classification: HepG2, 24 h exposure; for EC50: Homo sapiens, metabolic activity, read-out: EC50
Experimental: as §2

HL-1 = test: Resazurine cytotoxicity assay (metabolic activity), HL-1; format: cell-based, mouse; conditions: for MVC / EC50: HL-1, 24 h; for MVC: maximal viability concentration; for Cytotoxicity-Classification: HL-1, 24 h exposure; for EC50: Mus musculus, metabolic activity
Experimental: as §2

HL-1 cells = test: Apoptosis of ischemic HL-1 cardiomyocytes (TUNEL assay, flow cytometer); format: cell-based, mouse; conditions: 100 µM; for Relative rate of apoptosis normalised to control [%]: 8 h ischemia (glucose deficient medium + hydrogen peroxide), 8h Ischemia alone 701.6, 8h Control 100
Experimental: To establish a cardiomyocytes based apoptosis assay, which mimics the post-ischemic damage observed after myocardial infarction, we have utilized a cardiac muscle cell line, HL-1 cells, derived from the AT-1 mouse atrial cardiomyocyte tumor lineage. The HL-1 cells were incubated in glucose deficient medium in the presence of hydrogen peroxide and either in presence or absence of compounds of the invention Apoptosis rate of ischemic HL-1 cells was normalised to the apoptosis rate of the 8h control cells under non-ischemic conditions, thus incubated with normal concentration of glucose in the absence of hydrogen peroxide. Both non-ischemic and ischemic HL-1 cultures were harvested after 8 hours. […] The apoptotic rates were then evaluated by TUNEL assay, a method for detecting DNA strand breaks in apoptotic cells by flow cytometer The solvent of the compounds, i.e DMSO, has no influence on the apoptosis rate. […] Effect of newly synthesized compounds with Rac1 inhibitory activity on apoptosis rate in HL-1 cells normalized to control (TUNEL-assay) The data are representative of two experiments.

[6] = system: major drug metabolising CYPs (including CYP2C19, CYP2D6, CYP3A4); test: Inhibition of major drug metabolising CYP activities
Source text: The probe metabolites as in experimental For CYP2C19, a=omeprazole demethylation and b=omeprazole 5-hydroxylation; for CYP3A4, a=omeprazole 3-hydroxylation, b= omeprazole sulfonation, c=testosterone 6β-hydroxylation and d= midazolam 1'-hydroxylation.

CYP2D6 = CYP2D6 (Homo sapiens, UniProt P10635); test: Inhibition of CYP2D6 activity; format: biochemical; conditions: read-out: CYP2D6 activity inhibited by
[7] = Substrate depletion in human liver microsomes and in vitro - in vivo extrapolation; format: in vitro ADME; conditions: for CLh: hepatic clearance; for CLh / CLint / CLtot: extrapolated to human from substrate depletion (1 µM, 60 min); for half-life at 1 µM: human, human liver microsomes; for CLint: intrinsic clearance (whole liver); for CLtot: total (systemic) clearance
Experimental: The remaining peak areas after 60 minutes incubation was also determined after incubation with increasing concentrations of compounds CWB021/01039 and CWB024/02054. […] The disappearances for both study compounds were also clearly cofactor dependent and thus metabolism related Calculations of pharmacokinetic (PK) parameters on the basis of substrate depletion for both study compounds (1 µM, 60 min time point) in human liver microsomes are shown in Table 6. Table 6. Kinetic in vitro - in vivo extrapolations of study compound clearances and half-lifes in human, wherein: intrinsic clearance (whole liver) = CLint; hepatic clearance = CLH; total (systemic) clearance = CLtotal; half-life = t1/2.

[8] = Metabolic stability and metabolite identification in liver homogenates with cofactors (LC/MS); conditions: liver homogenate with cofactors, 10 µM substrate, 60 min
Experimental: as §3

Rac1 [9] = molecular target: T1, Rac1; test: Classic pull down assay of Rac1-GTP in human cells; format: cell-based; conditions: 50 and 100 µM; Figure 2
Experimental: Thus, a classic pull down assay was also performed in human cells incubated with 50 and 100 µM concentration of CWB024/02054

[10] = 0.1 µM initial substrate concentration
[11] = 1 µM initial substrate concentration
[12] = 10 µM initial substrate concentration

Chain of CYP2D6 (P10635 whole entry): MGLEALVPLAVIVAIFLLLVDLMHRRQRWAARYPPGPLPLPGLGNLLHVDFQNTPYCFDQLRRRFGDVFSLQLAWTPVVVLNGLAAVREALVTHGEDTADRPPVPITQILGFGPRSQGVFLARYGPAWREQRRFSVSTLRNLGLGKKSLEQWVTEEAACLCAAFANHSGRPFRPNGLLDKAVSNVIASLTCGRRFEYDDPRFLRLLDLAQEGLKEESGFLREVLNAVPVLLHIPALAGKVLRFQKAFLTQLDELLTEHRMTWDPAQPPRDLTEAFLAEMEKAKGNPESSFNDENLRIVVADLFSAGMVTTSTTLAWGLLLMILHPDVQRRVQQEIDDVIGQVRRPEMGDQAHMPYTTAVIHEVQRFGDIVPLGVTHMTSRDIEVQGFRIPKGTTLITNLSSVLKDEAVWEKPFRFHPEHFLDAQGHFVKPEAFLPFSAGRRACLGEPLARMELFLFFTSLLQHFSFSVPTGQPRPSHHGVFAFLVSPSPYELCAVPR

Structure (SMILES) | Caco2 Classification (Caco2) | Papp at 90 min, 50 µM [1] [×10⁻⁶ cm/s] | MVC [2] [µM] | Cytotoxicity-Classification [2] | EC50 [2] [µM] | remaining LC/MS peak area (relative to 0 min incubation samples, %) [3] | PAMPA classification [4] | PAMPA flux [%] ± SD [4] [%] | remaining activity at 50 µM (Rac1 [5]) [%] | inhibitory action on Rac1 activity (Rac1 [5]) | MVC (HepG2 cells) [µM] | Cytotoxicity-Classification (HepG2 cells) | EC50 (HepG2 cells) [µM] | MVC (HL-1) [µM] | Cytotoxicity-Classification (HL-1) | EC50 (HL-1) [µM] | Relative rate of apoptosis normalised to control [%] (HL-1 cells) | IC50 [6] [µM] | inhibition at 10 µM (CYP2D6) [%] | remaining peak area after 60 minutes incubation [7, 10] [%] | further results
c1cc(NCc2ccc3[nH]ccc3c2)nc(NCc2ccc3[nH]ccc3c2)n1 [CWB020/01041, N2,N4-Bis-(1H-indol-5-ylmethyl)-pyrimidine-2,4-diamine] | high (compounds with a Papp >10 are predicted to be well absorbed (70 - 100%)) | 65.9 ± 3.1 | 3.9 | ++ (10 µM < EC50 ≤ 100 µM, medium (++)) | 17 | 33-41% | high (high (flux >70%)) | 54±4 | 17.1 | significant end efficient inhibitory action | 7.8 | ++ (10 µM < EC50 ≤ 100 µM, medium (++)) | 64 | 15.6 | ++ (10 µM < EC50 ≤ 100 µM, medium (++)) | 39 | – | – | – | – | –
CCN(CC)CCCC(C)Nc1nccc(Nc2ccc3[nH]c(C)cc3c2)n1 (centres unmarked) [CWB021/01039, N2-(4-Diethylamino-1-methyl-butyl)-N4-(2-methyl-1H-indol-5-yl)-pyrimidine-2,4-diamine] | high (compounds with a Papp >10 are predicted to be well absorbed (70 - 100%)) | 17.1 ± 12.5 | 31.3 | ++ (10 µM < EC50 ≤ 100 µM, medium (++)) | 13 | 33-41% | low (low (flux <20%)) | 5±1 | 81.1 | significant end efficient inhibitory action | 7.8 | ++ (10 µM < EC50 ≤ 100 µM, medium (++)) | 21 | 31.2 | ++ (10 µM < EC50 ≤ 100 µM, medium (++)) | 24 | 511.6 | > 10 | 35 | 69 | remaining peak area after 60 minutes incubation [7, 11]: 81%; remaining peak area after 60 minutes incubation [7, 12]: 95%; CLh [7]: 15.14 L/h; half-life at 1 µM [7]: 7.3 h; CLint [7]: 0.31 L/min; CLtot [7]: 15.32 L/h
CCN(CC)CCCC(C)Nc1nccc(Nc2cnc3ccccc3c2)n1 (centres unmarked) [CWB022/02052, N2-(4-Diethylamino-1-methyl-butyl)-N4-quinolin-3-yl-pyrimidine-2.4-diamine] | medium (compounds with Papp between 1 and 10 are moderately absorbed (20 - 70%)) | – | 7.8 | ++ (10 µM < EC50 ≤ 100 µM, medium (++)) | 15 | – | medium (medium (20%≤ flux ≤70%)) | 34±4 | – | significant end efficient inhibitory action | 7.8 | ++ (10 µM < EC50 ≤ 100 µM, medium (++)) | 32 | 31.2 | ++ (10 µM < EC50 ≤ 100 µM, medium (++)) | 60 | 607.8 | – | – | – | Papp at 1.5 h, 50 µM ([1]; Caco-2, Caco2 monolayers, 90 min): 8.9 ± 2.7 ×10⁻⁶ cm/s; remaining LC/MS peak area (relative to 0 min incubation samples, %) [8]: 5%
CCN(CC)CCCC(C)Nc1nccc(Nc2ccc3[nH]ccc3c2)n1 (centres unmarked) [CWB024/02054, N2-(4-Diethylamino-1-methyl-butyl)-N4-(1H-indol-5-yl)-pyrimidine-2,4-diamine] | high (compounds with a Papp >10 are predicted to be well absorbed (70 - 100%)) | 32.1 ± 12.4 | 1.9 | ++ (10 µM < EC50 ≤ 100 µM, medium (++)) | 17 | about 91% | low (low (flux <20%)) | 6±2 | 58.3 | significant end efficient inhibitory action | 7.8 | ++ (10 µM < EC50 ≤ 100 µM, medium (++)) | 33 | 7.8 | ++ (10 µM < EC50 ≤ 100 µM, medium (++)) | 56 | 319.4 | > 10 | 30 | 76 | reduction of relative apoptosis (HL-1 cells; versus 8 h ischemia): approximately 50%; reduced the intracellular content of Rac1-GTP (Rac1 [9]): over 90%; remaining peak area after 60 minutes incubation [7, 11]: 87%; remaining peak area after 60 minutes incubation [7, 12]: 86%; CLh [7]: 10.63 L/h; half-life at 1 µM [7]: 10.3 h; CLint [7]: 0.2 L/min; CLtot [7]: 10.81 L/h
